Assay results from PMC7477582, “Context dependent effects of ascorbic acid treatment in TET2 mutant myeloid neoplasia” (Communications Biology, 2020).

Molecular target: T1, TET2 catalytic domain (TET2CD) (Homo sapiens, UniProt Q6N021, DEL1481-1843)
T1 construct: GST-TET2CD (1099–1936 Del-insert), expressed in E. coli; also GST tag free TET2CD
Assay: SPR (Biacore […]), GST-TET2CD captured by anti-GST on CM5 chip; supported by Kd […] on 5mC-DNA-captured TET2CD and 5hmC ELISA EC50 […]
Format: binding

O=C1O[C@H]([C@@H](O)CO)C(O)=C1O [AA, Ascorbic acid]
Kd: 9.1 ± 2.3 µM
